Legend:
Format in all cases: cell-based
[1] = tested on: HCT116; assay: Cancer cell growth inhibition (CellTiter-Glo, 72 hours); conditions: Homo sapiens, HCT-116, HCT116 cells, read-out: GI50s (μM) HCT116
Description: (§1) Seeding 3000 cells per well in a 96-well plate. After cell stabilization, treat the cells with compounds diluted in 0.5% DMSO at a ⅓ serial dilution and culture for 72 hours. Following treatment with CellTiter-Glo, luminescence is produced only in the presence of ATP, as luciferase degrades luciferin. Luminescence values were measured using Envision (PerkinElmer). Based on the measured luminescence values, the concentration of compounds causing cell death was calculated to determine the GI50 value.
(§2) The activity values were categorized into three levels • A: IC50<1 μM • B: 1 μM≤IC50<10 μM, • C: IC50≥10 μM

[2] = tested on: H358; assay: as above; conditions: Homo sapiens, NCI-H358, H358 cells, read-out: GI50s (μM) H358
Description: as §1, §2

[3] = tested on: H23; assay: as above; conditions: Homo sapiens, NCI-H23, H23 cells, read-out: GI50s (μM) H23
Description: as §1, §2

[4] = tested on: colo205; assay: as above; conditions: Homo sapiens, COLO 205, colo205 cells, read-out: GI50s (μM) colo205
Description: as §1, §2

[5] = tested on: H1975; assay: as above; conditions: Homo sapiens, NCI-H1975, H1975 cells, read-out: GI50s (μM) H1975
Description: as §1, §2

[6] = tested on: MDA-MB-231; assay: as above; conditions: Homo sapiens, MDA-MB-231 cells, read-out: GI50s (μM) MDA-MB-231
Description: as §1, §2

[7] = target: T1, Ba/F3 FLT3 (ITD/D835Y) (Homo sapiens, UniProt P36888, D835Y, cells depend on it, form not given); assay: Ba/F3 cell growth inhibition (CellTiter-Glo, 72 hours); conditions: read-out: Ba/F3 GI50s (μM) FLT3 (ITD/D835Y)
T1 sequence (P36888 1-993 D835Y): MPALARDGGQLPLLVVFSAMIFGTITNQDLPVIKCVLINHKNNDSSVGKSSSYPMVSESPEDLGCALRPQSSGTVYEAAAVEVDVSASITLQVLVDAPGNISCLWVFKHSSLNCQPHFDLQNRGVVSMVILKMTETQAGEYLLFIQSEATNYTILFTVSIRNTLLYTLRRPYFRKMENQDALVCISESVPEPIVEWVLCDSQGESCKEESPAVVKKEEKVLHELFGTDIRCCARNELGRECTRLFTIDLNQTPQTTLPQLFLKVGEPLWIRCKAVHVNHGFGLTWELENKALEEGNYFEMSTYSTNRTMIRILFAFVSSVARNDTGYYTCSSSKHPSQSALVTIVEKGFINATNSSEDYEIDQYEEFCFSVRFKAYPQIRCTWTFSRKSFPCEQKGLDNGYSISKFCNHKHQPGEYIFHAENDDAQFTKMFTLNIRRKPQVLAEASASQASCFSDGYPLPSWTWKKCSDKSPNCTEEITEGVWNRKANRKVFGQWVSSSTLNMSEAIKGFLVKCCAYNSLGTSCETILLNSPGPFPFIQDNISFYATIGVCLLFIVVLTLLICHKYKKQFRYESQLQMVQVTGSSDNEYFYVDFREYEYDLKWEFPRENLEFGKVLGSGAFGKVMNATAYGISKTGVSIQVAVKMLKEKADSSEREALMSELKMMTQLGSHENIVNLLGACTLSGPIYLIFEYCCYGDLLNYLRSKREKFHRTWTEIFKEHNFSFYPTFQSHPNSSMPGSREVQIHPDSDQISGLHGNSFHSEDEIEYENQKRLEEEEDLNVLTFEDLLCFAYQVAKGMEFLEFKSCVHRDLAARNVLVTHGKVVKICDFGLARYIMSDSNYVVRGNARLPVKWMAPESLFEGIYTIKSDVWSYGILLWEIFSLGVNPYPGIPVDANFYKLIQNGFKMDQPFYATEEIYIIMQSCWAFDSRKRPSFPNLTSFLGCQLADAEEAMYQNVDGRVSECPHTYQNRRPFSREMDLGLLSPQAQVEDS
Description: as §1, with “[…]” for “0.5%”
(§3) The activity values were categorized into three levels. • A: IC50<1 μM • B: 1 μM≤IC50<10 μM, • C: IC50≥10 μM

[8] = tested on: Ba/F3 parental; assay: as above; conditions: Mus musculus, BaF3, Ba/F3 parental cells, read-out: Ba/F3 GI50s (μM) parental
Description: as §1, with “[…]” for “0.5%”
as §3

| IC50 [1] [µM] | IC50 [2] [µM] | IC50 [3] [µM] | IC50 [4] [µM] | IC50 [5] [µM] | IC50 [6] [µM] | GI50 [7] [µM] | SMILES | IC50 [8] [µM] |
| --- | --- | --- | --- | --- | --- | --- | --- | --- |
| < 1 | 1 to 10 | < 1 | 1 to 10 | 1 to 10 | ≥ 10 | < 1 | O=C1CCCCOc2ccc(cc2)-c2ccc3cnc(nn23)Nc2cnn(c2)CCCN1 [Example 36, (2^1Z,4^4E)-4^1H-14-oxa-3,8-diaza-2(7,2)-pyrrolo[2,1-f][1,2,4]triazina-4(4,1)-pyrazola-1(1,4)-benzenacyclotetradecaphan-9-one] | 1 to 10 |
| 1 to 10 | 1 to 10 | 1 to 10 | 1 to 10 | 1 to 10 | 1 to 10 | < 1 | c1cc2ccc1Nc1ncc3ccc(n3n1)-c1ccc(cc1)OCCNCCCO2 [Example 30, (Z)-5,12-dioxa-3,9-diaza-2(7,2)-pyrrolo[2,1-f][1,2,4]triazina-1,4(1,4)-dibenzenacyclododecaphane] | ≥ 10 |
| ≥ 10 | ≥ 10 | ≥ 10 | ≥ 10 | ≥ 10 | 1 to 10 | 1 to 10 | COc1cc2ccc1Nc1ncc3ccc(n3n1)-c1ccc(cc1)OCCOCC(=O)NCCCO2 [Example 34, (Z)-42-methoxy-5,12,15-trioxa-3,9-diaza-2(7,2)-pyrrolo[2,1-f][1,2,4]triazina-1,4(1,4)-dibenzenacyclopentadecaphan-10-one] | ≥ 10 |
| ≥ 10 | ≥ 10 | ≥ 10 | ≥ 10 | ≥ 10 | ≥ 10 | 1 to 10 | CS(=O)(=O)Nc1cccc(-c2ccc3cnc(Nc4ccc(N5CCN(CCCCCCCOc6cccc7c6C(=O)N(C6CCC(=O)NC6=O)C7=O)CC5)cc4)nn23)c1 (stereo not drawn) [Example 41] | 1 to 10 |
| 1 to 10 | 1 to 10 | 1 to 10 | ≥ 10 | 1 to 10 | ≥ 10 | < 1 | Cc1ncsc1-c1ccc(CNC(=O)[C@@H]2C[C@@H](O)CN2C(=O)[C@@H](NC(=O)CCOCCOCCN2CCN(c3ccc(Nc4ncc5ccc(-c6cccc(NS(C)(=O)=O)c6)n5n4)cc3)CC2)C(C)(C)C)cc1 [Example 84, (2S,4R)-1-((S)-3,3-dimethyl-2-(3-(2-(2-(4-(4-((7-(3-(methanesulfonamido)phenyl)pyrrolo[2,1-f][1,2,4]triazin-2-yl)amino)phenyl)piperazin-1-yl)ethoxy)ethoxy)propanamido)butanoyl)-4-hydroxy-N-(4-(4-methylthiazol-5-yl)benzyl)pyrrolidin-2-carboxamide] | 1 to 10 |
| ≥ 10 | ≥ 10 | ≥ 10 | ≥ 10 | ≥ 10 | ≥ 10 | ≥ 10 | CS(=O)(=O)Nc1cccc(-c2ccc3cnc(Nc4ccc(N5CCN(CCCCCOc6cccc7c6C(=O)N(C6CCC(=O)NC6=O)C7=O)CC5)cc4)nn23)c1 (stereo not drawn) [Example 39] | ≥ 10 |
| 1 to 10 | 1 to 10 | ≥ 10 | ≥ 10 | ≥ 10 | ≥ 10 | < 1 | O=C1CCCCOc2ccc(cc2)-c2ccc3cnc(nn23)Nc2ccc(cc2)OCCCN1 [Example 38, (Z)-5,15-dioxa-3,9-diaza-2(7,2)-pyrrolo[2,1-f][1,2,4]triazina-1,4(1,4)-dibenzenacyclopentadecaphan-10-one] | ≥ 10 |
| ≥ 10 | ≥ 10 | ≥ 10 | ≥ 10 | ≥ 10 | ≥ 10 | 1 to 10 | CS(=O)(=O)Nc1cccc(-c2ccc3cnc(Nc4ccc(N5CCN(CCCCCCCCCCCOc6cccc7c6C(=O)N(C6CCC(=O)NC6=O)C7=O)CC5)cc4)nn23)c1 (stereo not drawn) [Example 42] | 1 to 10 |

More lines, now with the values behind:

| SMILES | IC50 [1] [µM] | IC50 [2] [µM] | IC50 [3] [µM] | IC50 [4] [µM] | IC50 [5] [µM] | IC50 [6] [µM] | GI50 [7] [µM] | IC50 [8] [µM] |
| --- | --- | --- | --- | --- | --- | --- | --- | --- |
| O=C1CCCCCCOc2ccc(cc2)-c2ccc3cnc(nn23)Nc2ccc(cc2)N2CCN(CCCN1)CC2 [Example 23, (Z)-17-oxa-3,9-diaza-2(7,2)-pyrrolo[2,1-f][1,2,4]triazina-5(1,4)-piperazina-1,4(1,4)-dibenzenacycloheptadecaphan-10-one] | 1 to 10 | 1 to 10 | < 1 | 1 to 10 | 1 to 10 | ≥ 10 | < 1 | ≥ 10 |
| O=C1COCCOc2ccc(cc2)-c2ccc3cnc(nn23)Nc2ccc(cc2)OCCCN1 [Example 28, (Z)-5,12,15-trioxa-3,9-diaza-2(7,2)-pyrrolo[2,1-f][1,2,4]triazina-1,4(1,4)-dibenzenacyclopentadecaphan-10-one] | 1 to 10 | 1 to 10 | 1 to 10 | 1 to 10 | 1 to 10 | ≥ 10 | < 1 | < 1 |
| CC(=O)N1CCCn2cc(cn2)Nc2ncc3ccc(n3n2)-c2ccc(cc2)OCC1 [Example 3, 1-((2^1Z,4^4E)-4^1H-11-oxa-3,8-diaza-2(7,2)-pyrrolo[2,1-f1][1,2,4]triazina-4(4,1)-pyrazola-1(1,4)-benzenacycloundecaphane-8-yl)ethan-1-one] | < 1 | 1 to 10 | 1 to 10 | 1 to 10 | 1 to 10 | 1 to 10 | < 1 | 1 to 10 |
| O=C1CCCCCCOc2ccc(cc2)-c2ccc3cnc(nn23)Nc2ccc(cc2)N2CCN1CC2 [Example 24, (Z)-13-oxa-3-aza-2(7,2)-pyrrolo[2,1-f][1,2,4]triazina-5(1,4)-piperazina-1,4(1,4)-dibenzenacyclotridecaphan-6-one] | 1 to 10 | 1 to 10 | 1 to 10 | 1 to 10 | 1 to 10 | ≥ 10 | 1 to 10 | 1 to 10 |
| CN1CCCn2cc(cn2)Nc2ncc3ccc(n3n2)-c2ccc(cc2)OCC1 [Example 2] | < 1 | < 1 | < 1 | 1 to 10 | 1 to 10 | ≥ 10 | < 1 | 1 to 10 |
| O=C1CCCCCCn2cc(cn2)-c2ccc3cnc(nn23)Nc2ccc(cc2)OCCCN1 [Example 17, (1^4Z,2^1Z)-1′H-5-oxa-3,9-diaza-2(7,2)-pyrrolo[2,1-f][1,2,4]triazina-1(4,1)-pyrazola-4(1,4)-benzenacyclohexadecaphan-10-one] | 1 to 10 | ≥ 10 | 1 to 10 | ≥ 10 | 1 to 10 | ≥ 10 | 1 to 10 | ≥ 10 |
| CS(=O)(=O)N1CCCn2cc(cn2)Nc2ncc3ccc(n3n2)-c2ccc(cc2)OCC1 [Example 9, (2^1Z,4^4E)-8-(methylsulfonyl)-4^1H-11-oxa-3,8-diaza-2(7,2)-pyrrolo[2,1-f][1,2,4]triazina-4(4,1)-pyrazola-1(1,4)-benzenecycloundecaphane] | < 1 | < 1 | 1 to 10 | 1 to 10 | 1 to 10 | ≥ 10 | < 1 | 1 to 10 |

Reference: US20250136614A1, “2,7-SUBSTITUTED PYRROLO[2,1-F][1,2,4]TRIAZINE COMPOUND HAVING PROTEIN KINASE INHIBITORY ACTIVITY” (Magicbullettherapeutics Co., Ltd., priority 2021, published 2025)
